Consider three compounds from patent publication EP4745135A1 (Gluetacs Therapeutics (Shanghai) Co., Ltd., priority 2023, dated 2025).

The subject of experiment [1] is Human breast cancer cell (MCF-7). Briefly: Tumor cell proliferation inhibition (CellTiter-Meiluncell luminescent cell viability assay). To be noted: MCF7, 96 h.
In experiment [2] the test system is Human multiple myeloma peripheral blood B lymphocyte cell (RPMI-8226). The experiment is described as above. The settings on record: RPMI-8226, 96 h; for inhibition at 0.01 µM: read-out: Inhibition Rate at 10 nM (%); for inhibition at 0.5 µM: read-out: Inhibition Rate at 500 nM (%).
Method: The tumor cells used herein were cultured in a cell culture medium listed in table 2 at 37°C in an incubator with 5% CO2. Prior to experimentation, all cell lines used were correctly identified by STR profiling, and tested negative for mycoplasma contamination using a mycoplasma detection kit through routine screenings.
The IC50 values of the compounds of the present disclosure (including the compounds in Table 1 and Examples) were determined using the CellTiter-Meiluncell Luminescent Cell Viability Assay Kit from Dalian Meilun Biotech Co., Ltd. The detailed procedure is as follows: Tumor cells were seeded in 96-well cell culture plates at the densities specified in Table 3. On the following day, the test compounds of the present disclosure were subjected to serial dilution. The dilution can be performed according to one of the following two methods: • (1) The first dilution method: The test compounds of the present disclosure (including the compounds in Table 1 and Examples) were subjected to 5-fold serial dilutions starting from a highest concentration of 2000 µM, resulting in a total of 9 concentrations from high to low (2000, 400, 80, 16, 3.2, 0.64, 0.128, 0.0256, 0.00512 µM). Subsequently, 0.5 µL of the test compound dilution was transferred into the 96-well plate containing the cells, with each well containing 100 µL of cell culture medium. […] Into the 96-well plate, the diluted test compounds and corresponding detection reagents were added, resulting in final test compound concentrations of 500 nM and 10 nM, respectively. The experimental procedure is described below using the diluted 2 µM test compound as an example.
0.5 µL of the aforementioned diluted compound of the present disclosure (including the compounds in Table 1 and Examples) was added to the seeded cells in 100 µL of medium, yielding a final test compound concentration of 10 nM. After the cells were treated with the compounds of the present disclosure for a specified period, the cell viability assay reagent was added to the culture medium according to the kit's instructions to determine cell viability. […] All controls were treated using the same procedure as the compounds of the present disclosure. The growth inhibition curves for the compounds of the present disclosure were plotted using Prism GraphPad software, and the IC50 values were calculated therefrom.
The subject of experiment [3] is Human acute T lymphocytic leukemia cell (Molt4). Described as above. The settings on record: MOLT-4, 96 h; for inhibition at 0.01 µM: read-out: Inhibition Rate at 10 nM (%); for inhibition at 0.5 µM: read-out: Inhibition Rate at 500 nM (%).
Experiment [4] has as its system Human myeloid monocytic leukemia cell (MV-4-11). The description is as above. To be noted: MV4-11, 96 h; for inhibition at 0.01 µM: read-out: Inhibition Rate at 10 nM (%); for inhibition at 0.5 µM: read-out: Inhibition Rate at 500 nM (%).
In another experiment the target is T1, WEE1 (Homo sapiens, UniProt P30291+Q96SW2).
T1 construct: effects of the compounds of the present disclosure on the expression of target proteins in cells; endogenous in cells; host or cells: human PBMCs (Milecell Biotechnologies)
T1 sequence (P30291 whole entry): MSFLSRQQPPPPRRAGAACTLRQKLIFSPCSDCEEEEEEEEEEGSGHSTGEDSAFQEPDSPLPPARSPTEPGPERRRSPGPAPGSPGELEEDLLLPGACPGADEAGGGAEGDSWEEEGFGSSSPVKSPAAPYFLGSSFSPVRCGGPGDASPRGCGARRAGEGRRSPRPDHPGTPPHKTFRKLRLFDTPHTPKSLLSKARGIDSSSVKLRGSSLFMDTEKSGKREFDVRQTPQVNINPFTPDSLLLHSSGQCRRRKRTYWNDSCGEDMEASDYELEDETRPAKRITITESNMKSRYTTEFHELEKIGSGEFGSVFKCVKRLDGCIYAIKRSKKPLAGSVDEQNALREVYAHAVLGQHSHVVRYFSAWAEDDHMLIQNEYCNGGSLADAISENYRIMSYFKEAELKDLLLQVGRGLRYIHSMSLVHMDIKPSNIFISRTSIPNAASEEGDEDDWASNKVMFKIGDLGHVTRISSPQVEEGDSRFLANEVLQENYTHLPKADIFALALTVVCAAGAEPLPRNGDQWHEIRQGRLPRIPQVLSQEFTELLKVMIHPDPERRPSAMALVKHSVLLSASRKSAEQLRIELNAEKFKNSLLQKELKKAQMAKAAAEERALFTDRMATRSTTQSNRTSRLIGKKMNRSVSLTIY
T1 sequence (Q96SW2 whole entry): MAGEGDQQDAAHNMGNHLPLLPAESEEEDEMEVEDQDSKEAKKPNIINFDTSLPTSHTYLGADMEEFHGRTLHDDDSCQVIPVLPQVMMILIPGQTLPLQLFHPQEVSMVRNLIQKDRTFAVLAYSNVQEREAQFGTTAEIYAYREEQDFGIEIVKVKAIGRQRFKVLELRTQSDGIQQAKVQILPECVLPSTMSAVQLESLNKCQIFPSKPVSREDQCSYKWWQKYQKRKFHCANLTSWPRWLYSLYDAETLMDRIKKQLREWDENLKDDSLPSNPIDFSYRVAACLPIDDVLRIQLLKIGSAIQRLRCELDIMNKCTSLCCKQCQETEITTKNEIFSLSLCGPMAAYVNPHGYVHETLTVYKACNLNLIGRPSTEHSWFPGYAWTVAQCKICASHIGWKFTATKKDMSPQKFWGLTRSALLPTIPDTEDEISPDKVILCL
T1 sequence (Q16531 whole entry partner): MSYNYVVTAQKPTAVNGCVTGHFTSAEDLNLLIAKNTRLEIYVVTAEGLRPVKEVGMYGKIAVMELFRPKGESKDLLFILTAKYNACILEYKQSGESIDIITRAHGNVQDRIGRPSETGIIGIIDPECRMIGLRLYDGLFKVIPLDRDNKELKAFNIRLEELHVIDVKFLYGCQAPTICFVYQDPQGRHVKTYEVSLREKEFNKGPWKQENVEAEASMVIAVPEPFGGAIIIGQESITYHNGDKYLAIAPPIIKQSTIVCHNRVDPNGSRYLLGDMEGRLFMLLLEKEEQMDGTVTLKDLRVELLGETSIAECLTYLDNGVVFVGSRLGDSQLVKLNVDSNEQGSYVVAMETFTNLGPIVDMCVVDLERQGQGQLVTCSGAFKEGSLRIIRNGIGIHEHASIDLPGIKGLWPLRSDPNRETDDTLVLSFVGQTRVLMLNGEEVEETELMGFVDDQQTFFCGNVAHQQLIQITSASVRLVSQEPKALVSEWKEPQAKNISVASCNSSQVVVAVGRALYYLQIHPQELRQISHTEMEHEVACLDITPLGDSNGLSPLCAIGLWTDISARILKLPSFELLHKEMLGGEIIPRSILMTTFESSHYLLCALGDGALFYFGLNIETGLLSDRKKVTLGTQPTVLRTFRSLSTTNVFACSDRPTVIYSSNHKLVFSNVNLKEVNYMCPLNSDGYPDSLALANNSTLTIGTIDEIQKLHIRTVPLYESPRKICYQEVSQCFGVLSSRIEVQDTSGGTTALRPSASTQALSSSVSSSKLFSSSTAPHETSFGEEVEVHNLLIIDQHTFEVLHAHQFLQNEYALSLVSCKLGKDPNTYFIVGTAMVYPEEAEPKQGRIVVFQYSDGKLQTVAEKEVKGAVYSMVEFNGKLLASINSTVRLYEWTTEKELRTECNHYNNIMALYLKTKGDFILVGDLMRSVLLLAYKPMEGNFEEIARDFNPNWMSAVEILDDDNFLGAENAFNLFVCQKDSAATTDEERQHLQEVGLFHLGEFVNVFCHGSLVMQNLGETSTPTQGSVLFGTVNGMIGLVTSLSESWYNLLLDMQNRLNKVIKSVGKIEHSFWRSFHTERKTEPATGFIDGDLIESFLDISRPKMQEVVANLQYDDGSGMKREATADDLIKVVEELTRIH
The experiment in a line: Western blot, degradation of substrate protein in hPBMCs. Format: cell-based. To be noted: Western blot, 24 hours of compound treatment, compounds tested at 50 nM and 500 nM (concentration for the table not stated). Background: A western blot detects proteins with antibodies after separation by electrophoresis.

The target of the next experiment is T2, IKZF3 (Homo sapiens, UniProt Q96SW2+Q9UKT9).
T2 construct: effects of the compounds of the present disclosure on the expression of target proteins in cells; endogenous in cells; host or cells: human PBMCs (Milecell Biotechnologies)
T2 sequence (Q9UKT9 whole entry): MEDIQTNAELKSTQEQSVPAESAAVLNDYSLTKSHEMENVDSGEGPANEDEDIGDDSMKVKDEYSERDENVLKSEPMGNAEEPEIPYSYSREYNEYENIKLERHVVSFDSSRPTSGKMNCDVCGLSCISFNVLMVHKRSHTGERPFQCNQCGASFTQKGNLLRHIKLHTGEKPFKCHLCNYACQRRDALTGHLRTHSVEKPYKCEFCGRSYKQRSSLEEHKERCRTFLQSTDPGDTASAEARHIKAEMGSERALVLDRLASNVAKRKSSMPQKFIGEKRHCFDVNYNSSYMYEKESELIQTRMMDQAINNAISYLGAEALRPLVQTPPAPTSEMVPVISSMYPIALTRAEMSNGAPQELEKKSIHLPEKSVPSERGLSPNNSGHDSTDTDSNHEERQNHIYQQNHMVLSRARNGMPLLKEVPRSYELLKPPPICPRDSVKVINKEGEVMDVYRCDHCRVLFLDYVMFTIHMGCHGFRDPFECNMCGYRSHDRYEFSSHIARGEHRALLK
T2 sequence (Q96SW2 whole entry): as the sequence (Q96SW2 whole entry) above
T2 sequence (Q16531 whole entry partner): as the sequence (Q16531 whole entry partner) above
The description is as above. Format: cell-based. The settings on record: Western blot, 24 hours of compound treatment, compounds tested at 50 nM and 500 nM (concentration for the table not stated).

The next experiment addresses T3, IKZF1 (Homo sapiens, UniProt Q13422+Q96SW2).
T3 construct: effects of the compounds of the present disclosure on the expression of target proteins in cells; endogenous in cells; host or cells: human PBMCs (Milecell Biotechnologies)
Described as above. To be noted: Western blot, 24 hours of compound treatment, compounds tested at 50 nM and 500 nM (concentration for the table not stated). Format: cell-based.

Another experiment addresses T4, IKZF2 (Homo sapiens, UniProt Q96SW2+Q9UKS7).
T4 construct: effects of the compounds of the present disclosure on the expression of target proteins in cells; endogenous in cells; host or cells: human PBMCs (Milecell Biotechnologies)
The experiment is described as above. Format: cell-based. To be noted: Western blot, 24 hours of compound treatment, compounds tested at 50 nM and 500 nM (concentration for the table not stated).

Another experiment has as its target T5, CK1α (Homo sapiens, UniProt P48729+Q96SW2).
T5 construct: effects of the compounds of the present disclosure on the expression of target proteins in cells; endogenous in cells; host or cells: human PBMCs (Milecell Biotechnologies)
The experiment is described as above. Format: cell-based. The settings on record: Western blot, 24 hours of compound treatment, compounds tested at 50 nM and 500 nM (concentration for the table not stated).

In the next experiment the test system is GSPT1. Described as above. The settings on record: Western blot, 24 hours of compound treatment, compounds tested at 50 nM and 500 nM (concentration for the table not stated). Format: cell-based, Human.
Experiment [5] concerns the target T6, human Cereblon WT GST-tagged protein (Homo sapiens, UniProt Q96SW2).
T6 construct: purchased CISBIO 64BDCRBNPEH
Briefly: CRBN-binding affinity, HTRF (CEREBLON BINDING kit). The settings on record: for inhibition at 0.5 µM: read-out: Inhibition Rate at 0.5 µM (%); for inhibition at 2 µM: read-out: Inhibition Rate at 2 µM (%).

Experiment [6] has as its system Human multiple myeloma cell (MM.1S). Briefly: Tumor cell proliferation inhibition (CellTiter-Meiluncell luminescent cell viability assay). The settings on record: Homo sapiens, MM1.S, 96 h; for inhibition at 0.01 µM: read-out: Inhibition Rate at 10 nM (%); for inhibition at 0.5 µM: read-out: Inhibition Rate at 500 nM (%).

SMILES strings stand for the structures.

T6 sequence (Q96SW2 whole entry): as the sequence (Q96SW2 whole entry) above
T3 sequence (Q13422 whole entry): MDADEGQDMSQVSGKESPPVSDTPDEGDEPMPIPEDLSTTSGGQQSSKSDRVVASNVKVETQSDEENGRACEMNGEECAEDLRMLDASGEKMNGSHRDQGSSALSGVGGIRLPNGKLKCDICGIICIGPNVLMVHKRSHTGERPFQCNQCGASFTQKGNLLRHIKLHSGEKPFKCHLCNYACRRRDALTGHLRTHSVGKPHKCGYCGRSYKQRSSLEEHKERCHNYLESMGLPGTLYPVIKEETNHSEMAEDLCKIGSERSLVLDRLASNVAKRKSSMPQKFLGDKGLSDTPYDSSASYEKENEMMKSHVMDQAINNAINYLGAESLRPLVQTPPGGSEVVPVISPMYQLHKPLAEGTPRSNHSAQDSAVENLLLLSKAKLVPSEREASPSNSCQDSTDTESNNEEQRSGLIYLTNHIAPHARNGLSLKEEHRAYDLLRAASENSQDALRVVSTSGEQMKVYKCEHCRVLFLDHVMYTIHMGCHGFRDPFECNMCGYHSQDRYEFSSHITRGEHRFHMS
T3 sequence (Q96SW2 whole entry): as the sequence (Q96SW2 whole entry) above
T3 sequence (Q16531 whole entry partner): as the sequence (Q16531 whole entry partner) above
T4 sequence (Q9UKS7 whole entry): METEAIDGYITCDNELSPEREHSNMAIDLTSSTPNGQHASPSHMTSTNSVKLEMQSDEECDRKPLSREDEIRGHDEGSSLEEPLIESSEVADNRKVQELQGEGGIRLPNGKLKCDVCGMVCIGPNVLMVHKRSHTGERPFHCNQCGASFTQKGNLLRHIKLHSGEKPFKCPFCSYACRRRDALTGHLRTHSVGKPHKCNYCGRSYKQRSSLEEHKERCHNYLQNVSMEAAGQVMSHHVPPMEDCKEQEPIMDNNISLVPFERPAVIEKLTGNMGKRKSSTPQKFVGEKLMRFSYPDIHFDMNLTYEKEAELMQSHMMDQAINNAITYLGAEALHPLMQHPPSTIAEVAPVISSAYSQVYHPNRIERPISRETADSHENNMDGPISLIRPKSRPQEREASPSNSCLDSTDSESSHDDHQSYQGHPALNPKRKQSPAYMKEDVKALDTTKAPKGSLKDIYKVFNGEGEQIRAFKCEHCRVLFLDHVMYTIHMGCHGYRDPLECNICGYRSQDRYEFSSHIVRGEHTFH
T4 sequence (Q96SW2 whole entry): as the sequence (Q96SW2 whole entry) above
T4 sequence (Q16531 whole entry partner): as the sequence (Q16531 whole entry partner) above
T5 sequence (P48729 whole entry): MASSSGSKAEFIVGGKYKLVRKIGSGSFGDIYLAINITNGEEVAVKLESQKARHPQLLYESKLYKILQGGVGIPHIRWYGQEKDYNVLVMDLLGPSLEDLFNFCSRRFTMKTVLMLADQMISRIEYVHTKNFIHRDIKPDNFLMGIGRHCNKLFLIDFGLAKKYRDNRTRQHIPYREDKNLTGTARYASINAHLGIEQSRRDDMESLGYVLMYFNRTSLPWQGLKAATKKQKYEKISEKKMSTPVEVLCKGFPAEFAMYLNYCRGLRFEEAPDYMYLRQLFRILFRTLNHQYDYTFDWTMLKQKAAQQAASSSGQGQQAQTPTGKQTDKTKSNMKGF
T5 sequence (Q96SW2 whole entry): as the sequence (Q96SW2 whole entry) above
T5 sequence (Q16531 whole entry partner): as the sequence (Q16531 whole entry partner) above

One may read the inhibition as the relative decrease from the control value, in per cent. Consider `O=C1CCC(N2Cc3cc(CN4CC=C(c5cncc(Cl)c5)CC4)ccc3C2=S)C(=O)N1` (centres unmarked) [GT-08490, 3-(5-((5-chloro-3',6'-dihydro-[3,4'-bipyridin]-1'(2'H)-yl)methyl)-1-thioxoisoindolin-2-yl)piperidine-2,6-dione], for which the inhibition at 0.01 µM in experiment [1] (read-out: Inhibition Rate at 10 nM (%)) was in the range of 30 to 40%; in [2] it was 20 to 30%; in experiment [3] it was 0 to 5%; in [4] it was 40 to 60%; in [6], 50 to 60%. Besides, the inhibition at 0.5 µM lay in the range of 50 to 60% in [1] (read-out: Inhibition Rate at 500 nM (%)); 70 to 80% in experiment [2]; 80 to 100% in experiment [3]; 80 to 100% in experiment [4]; 60 to 80% in experiment [5]; 80 to 100% in experiment [6]. In addition, at WEE1, the “Wee1 substrate protein remaining %” value is “A (0% ≤ substrate protein remaining % ≤ 80%)”. At IKZF3, the “IKZF3 substrate protein remaining %” value is reported as “A (0% ≤ substrate protein remaining % ≤ 80%)”. The “IKZF 1 substrate protein remaining %” value at IKZF1 is given as “B (80%< substrate protein remaining %≤ 100%)”. Also, at IKZF2, the “IKZF2 substrate protein remaining %” value is “A (0% ≤ substrate protein remaining % ≤ 80%)”. The “CK1α substrate protein remaining %” value at CK1α is listed as “B (80%< substrate protein remaining %≤ 100%)”. In addition, the “GSPT1 substrate protein remaining %” value with GSPT1 is on record as “A (0% ≤ substrate protein remaining % ≤ 80%)”. In experiment [5], the inhibition at 2 µM lay within 80 to 100%.

`O=C1CCC(N2Cc3cc(CN4CC=C(c5ccnc(Cl)c5Cl)CC4)ccc3C2=S)C(=O)N1` (centres unmarked) [GT-08482, 3-(5-((2',3'-dichloro-3,6-dihydro-[4,4'-bipyridin]-1(2H)-yl)methyl)-1-thioxoisoindolin-2-yl)piperidine-2,6-dione]: the inhibition at 0.01 µM in experiment [2] is 10 to 20%; in [3], -5 to 0%; in experiment [4], 40 to 60%; in experiment [6] it was 50 to 60%. In addition, the inhibition at 0.5 µM in experiment [2] was in the range of 60 to 70%; in [3] it was 80 to 100%; in experiment [4], 80 to 100%; in [5], 60 to 80%; in [6], 80 to 100%. At WEE1, the “Wee1 substrate protein remaining %” value is “A (0% ≤ substrate protein remaining % ≤ 80%)”. Also, the “IKZF3 substrate protein remaining %” value on IKZF3 is on record as “B (80%< substrate protein remaining %≤ 100%)”. Also, on IKZF1, the “IKZF 1 substrate protein remaining %” value was “B (80%< substrate protein remaining %≤ 100%)”. In addition, the “IKZF2 substrate protein remaining %” value at IKZF2 is “B (80%< substrate protein remaining %≤ 100%)”. Further, the “CK1α substrate protein remaining %” value on CK1α is recorded as “B (80%< substrate protein remaining %≤ 100%)”. Also, the “GSPT1 substrate protein remaining %” value with GSPT1 is listed as “A (0% ≤ substrate protein remaining % ≤ 80%)”. Moreover, the inhibition at 2 µM in [5] is 80 to 100%.

For `O=C1CCC(N2Cc3cc(CN4CCC(c5cccc(Br)c5)CC4)ccc3C2=S)C(=O)N1` (centres unmarked) [GT-08617, 3-(5-((4-(3-bromophenyl)piperidin-1-yl)methyl)-1-thioxoisoindolin-2-yl)piperidine-2,6-dione], the inhibition at 0.01 µM in experiment [2] was 10 to 20%; in experiment [3], 20 to 30%; in [4], 5 to 10%; in experiment [6] it was 30 to 40%. The inhibition at 0.5 µM in [2] was 50 to 60%; in [3] it was 80 to 100%; in experiment [4] it was 80 to 100%; in [5], 40 to 53%; in experiment [6], 80 to 100%. Also, the “Wee1 substrate protein remaining %” value at WEE1 is reported as “B (80%< substrate protein remaining %≤ 100%)”. Also, the “IKZF3 substrate protein remaining %” value on IKZF3 is recorded as “B (80%< substrate protein remaining %≤ 100%)”. Moreover, the “IKZF 1 substrate protein remaining %” value on IKZF1 is given as “B (80%< substrate protein remaining %≤ 100%)”. The “IKZF2 substrate protein remaining %” value on IKZF2 is on record as “B (80%< substrate protein remaining %≤ 100%)”. Besides, at CK1α, the “CK1α substrate protein remaining %” value is given as “B (80%< substrate protein remaining %≤ 100%)”. The “GSPT1 substrate protein remaining %” value with GSPT1 is “A (0% ≤ substrate protein remaining % ≤ 80%)”. Besides, in experiment [5], the inhibition at 2 µM was 80 to 100%.
